Results reported in PubChem BioAssay (NCI).
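How tested: cells in 96-well plates exposed to compound for 48 hours at five concentrations. GI50 = concentration required for 50% inhibition of growth. Definition used: TGI = concentration required for complete inhibition of growth.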

Experiments:
Test in all cases: DTP human tumour cell line panel, 48 h
NCI-H23 lung = tested on: NCI-H23 lung
SNB-75 CNS = tested on: SNB-75 CNS
RPMI-8226 leukemia = tested on: RPMI-8226 leukemia
OVCAR-4 ovarian = tested on: OVCAR-4 ovarian
KM12 colon = tested on: KM12 colon
SK-MEL-2 melanoma = tested on: SK-MEL-2 melanoma
MALME-3M melanoma = tested on: MALME-3M melanoma
HOP-92 NSCLC = tested on: HOP-92 NSCLC
MDA-N = tested on: MDA-N
MCF7 breast = tested on: MCF7 breast
COLO 205 colon = tested on: COLO 205 colon
A549 NSCLC = tested on: A549 NSCLC
NCI-H522 lung = tested on: NCI-H522 lung
CAKI-1 renal = tested on: CAKI-1 renal
K-562 leukemia = tested on: K-562 leukemia
NCI-H226 lung = tested on: NCI-H226 lung
SK-MEL-5 melanoma = tested on: SK-MEL-5 melanoma
HCT-116 colon = tested on: HCT-116 colon
A498 renal = tested on: A498 renal
OVCAR-3 ovarian = tested on: OVCAR-3 ovarian
U251 CNS = tested on: U251 CNS
NCI-H460 lung = tested on: NCI-H460 lung
TK-10 renal = tested on: TK-10 renal
OVCAR-8 ovarian = tested on: OVCAR-8 ovarian
SN12C renal = tested on: SN12C renal
MOLT-4 leukemia = tested on: MOLT-4 leukemia
UO-31 renal = tested on: UO-31 renal
SR leukemia = tested on: SR leukemia
HOP-62 NSCLC = tested on: HOP-62 NSCLC
IGROV1 ovarian = tested on: IGROV1 ovarian
UACC-62 melanoma = tested on: UACC-62 melanoma
NCI/ADR-RES ovarian = tested on: NCI/ADR-RES ovarian
HCC-2998 colon = tested on: HCC-2998 colon
M14 melanoma = tested on: M14 melanoma
MDA-MB-435 = tested on: MDA-MB-435
LOX IMVI melanoma = tested on: LOX IMVI melanoma
SW-620 colon = tested on: SW-620 colon
PC-3 prostate = tested on: PC-3 prostate
BT-549 breast = tested on: BT-549 breast
786-0 renal = tested on: 786-0 renal
UACC-257 melanoma = tested on: UACC-257 melanoma
HCT-15 colon = tested on: HCT-15 colon
HT29 colon = tested on: HT29 colon
SK-MEL-28 melanoma = tested on: SK-MEL-28 melanoma
ACHN renal = tested on: ACHN renal
T-47D breast = tested on: T-47D breast
EKVX NSCLC = tested on: EKVX NSCLC
DU-145 prostate = tested on: DU-145 prostate
SF-295 CNS = tested on: SF-295 CNS
CCRF-CEM leukemia = tested on: CCRF-CEM leukemia
SNB-19 CNS = tested on: SNB-19 CNS
SK-OV-3 ovarian = tested on: SK-OV-3 ovarian
HS 578T breast = tested on: HS 578T breast
OVCAR-5 ovarian = tested on: OVCAR-5 ovarian
SF-268 CNS = tested on: SF-268 CNS
MDA-MB-231 breast = tested on: MDA-MB-231 breast
RXF 393 renal = tested on: RXF 393 renal
HL-60(TB) leukemia = tested on: HL-60(TB) leukemia
SF-539 CNS = tested on: SF-539 CNS

COc1ccc(-n2cnc3c(NCC(=O)O)ncnc32)cc1
TGI (NCI-H23 lung): > 100 µM
TGI (SNB-75 CNS): > 100 µM
TGI (RPMI-8226 leukemia): > 100 µM
TGI (OVCAR-4 ovarian): > 100 µM
TGI (KM12 colon): > 100 µM
TGI (SK-MEL-2 melanoma): > 100 µM
TGI (MALME-3M melanoma): > 100 µM
TGI (HOP-92 NSCLC): > 100 µM
TGI (MDA-N): > 100 µM
TGI (MCF7 breast): > 100 µM
TGI (COLO 205 colon): > 100 µM
TGI (A549 NSCLC): > 100 µM
TGI (NCI-H522 lung): > 100 µM
TGI (CAKI-1 renal): > 100 µM
TGI (K-562 leukemia): > 100 µM
TGI (NCI-H226 lung): > 100 µM
TGI (SK-MEL-5 melanoma): > 100 µM
TGI (HCT-116 colon): > 100 µM
TGI (A498 renal): > 100 µM
TGI (OVCAR-3 ovarian): > 100 µM
TGI (U251 CNS): > 100 µM
TGI (NCI-H460 lung): > 100 µM
TGI (TK-10 renal): > 100 µM
TGI (OVCAR-8 ovarian): > 100 µM
TGI (SN12C renal): > 100 µM
TGI (MOLT-4 leukemia): > 100 µM
TGI (UO-31 renal): > 100 µM
TGI (SR leukemia): > 100 µM
TGI (HOP-62 NSCLC): > 100 µM
TGI (IGROV1 ovarian): > 100 µM
TGI (UACC-62 melanoma): > 100 µM
TGI (NCI/ADR-RES ovarian): > 100 µM
TGI (HCC-2998 colon): > 100 µM
TGI (M14 melanoma): > 100 µM
TGI (MDA-MB-435): > 100 µM
TGI (LOX IMVI melanoma): > 100 µM
TGI (SW-620 colon): > 100 µM
TGI (PC-3 prostate): > 100 µM
TGI (BT-549 breast): > 100 µM
TGI (786-0 renal): > 100 µM
TGI (UACC-257 melanoma): > 100 µM
TGI (HCT-15 colon): > 100 µM
TGI (HT29 colon): > 100 µM
TGI (SK-MEL-28 melanoma): > 100 µM
TGI (ACHN renal): > 100 µM
TGI (T-47D breast): > 100 µM
TGI (EKVX NSCLC): > 100 µM
TGI (DU-145 prostate): > 100 µM
TGI (SF-295 CNS): > 100 µM
TGI (CCRF-CEM leukemia): > 100 µM
TGI (SNB-19 CNS): > 100 µM
TGI (SK-OV-3 ovarian): > 100 µM
TGI (HS 578T breast): > 100 µM
TGI (OVCAR-5 ovarian): > 100 µM
TGI (SF-268 CNS): > 100 µM
TGI (MDA-MB-231 breast): > 100 µM

O=[N+]([O-])c1ccc2c3c1[C@H]1O[C@H]1c1cccc(c1-3)[C@@H]1O[C@H]21
TGI (NCI-H23 lung): 3.88 µM
TGI (SNB-75 CNS): 4.1 µM
TGI (RPMI-8226 leukemia): > 100 µM
TGI (OVCAR-4 ovarian): 4.46 µM
TGI (KM12 colon): 5.86 µM
TGI (SK-MEL-2 melanoma): > 100 µM
TGI (MALME-3M melanoma): 4.64 µM
TGI (HOP-92 NSCLC): 5.03 µM
TGI (MDA-N): 4.91 µM
GI50 (MCF7 breast): 2.78 µM
TGI (MCF7 breast): > 100 µM
GI50 (COLO 205 colon): 1.72 µM
TGI (COLO 205 colon): 3.69 µM
TGI (A549 NSCLC): 15.5 µM
TGI (NCI-H522 lung): 3.42 µM
TGI (CAKI-1 renal): 3.73 µM
TGI (RXF 393 renal): 3.38 µM
TGI (K-562 leukemia): > 100 µM
TGI (NCI-H226 lung): > 100 µM
TGI (SK-MEL-5 melanoma): 7.82 µM
TGI (HCT-116 colon): 3.59 µM
TGI (OVCAR-3 ovarian): 6.2 µM
TGI (U251 CNS): 3.98 µM
TGI (TK-10 renal): > 30 µM
TGI (OVCAR-8 ovarian): 3.24 µM
TGI (SN12C renal): 4.69 µM
TGI (MOLT-4 leukemia): > 100 µM
TGI (HL-60(TB) leukemia): 8.85 µM
TGI (UO-31 renal): 3.62 µM
TGI (SR leukemia): > 100 µM
TGI (HOP-62 NSCLC): 10.8 µM
TGI (UACC-62 melanoma): 3.69 µM
TGI (NCI/ADR-RES ovarian): 5.65 µM
TGI (M14 melanoma): 3.75 µM
TGI (MDA-MB-435): 4.14 µM
TGI (LOX IMVI melanoma): 1.28 µM
TGI (SW-620 colon): 2.75 µM
TGI (PC-3 prostate): > 20 µM
TGI (BT-549 breast): 3.89 µM
TGI (786-0 renal): 3.56 µM
TGI (UACC-257 melanoma): 4.87 µM
TGI (HCT-15 colon): 4.47 µM
TGI (HT29 colon): 6.57 µM
TGI (SK-MEL-28 melanoma): 6.73 µM
TGI (ACHN renal): 5.17 µM
TGI (SF-539 CNS): 4.09 µM
TGI (T-47D breast): 6.18 µM
TGI (EKVX NSCLC): 4.08 µM
TGI (DU-145 prostate): 6.25 µM
TGI (SF-295 CNS): 12.3 µM
TGI (SNB-19 CNS): 13.6 µM
TGI (SK-OV-3 ovarian): 11.6 µM
TGI (HS 578T breast): 7.06 µM
TGI (OVCAR-5 ovarian): 6.77 µM
TGI (SF-268 CNS): 4.38 µM
TGI (MDA-MB-231 breast): 3.87 µM
